pIC50: −log10 of the molar value. Converted amounts (≈) assume the structure as drawn. The source made the active and inactive calls. The calls are words filed in the database; no cut-off is given here.
Assays:
in vitro = conditions: dog, MDCK-MDR1, permeability
Description: (§1) Permeability across apical to basolateral side in dog MDCK-MDR1 cells measured for 60 mins by LC-MS/MS analysis

physchem = conditions: octanol/water, pH 7.4, logD
Description: (§2) Distribution coefficient, logD of compound at pH 7.4 by HPLC analysis

[1] = target: T1, Voltage-gated inwardly rectifying potassium channel KCNH2 (Homo sapiens, UniProt Q12809); assay: Inhibition of hERG by patch clamp assay; assay type: toxicity
[2] = target: T1, Voltage-gated inwardly rectifying potassium channel KCNH2; assay: Inhibition of hERG by Qpatch clamp assay; assay type: toxicity
Integrin alpha-V/beta-6 = Integrin alpha-V/beta-6 (Homo sapiens, UniProt P06756+P18564); assay: Binding affinity to Integrin alphaVbeta6 (unknown origin); assay type: protein-complex assay
Sequence of Integrin alpha-V/beta-6 (P06756 31-889 limits assumed): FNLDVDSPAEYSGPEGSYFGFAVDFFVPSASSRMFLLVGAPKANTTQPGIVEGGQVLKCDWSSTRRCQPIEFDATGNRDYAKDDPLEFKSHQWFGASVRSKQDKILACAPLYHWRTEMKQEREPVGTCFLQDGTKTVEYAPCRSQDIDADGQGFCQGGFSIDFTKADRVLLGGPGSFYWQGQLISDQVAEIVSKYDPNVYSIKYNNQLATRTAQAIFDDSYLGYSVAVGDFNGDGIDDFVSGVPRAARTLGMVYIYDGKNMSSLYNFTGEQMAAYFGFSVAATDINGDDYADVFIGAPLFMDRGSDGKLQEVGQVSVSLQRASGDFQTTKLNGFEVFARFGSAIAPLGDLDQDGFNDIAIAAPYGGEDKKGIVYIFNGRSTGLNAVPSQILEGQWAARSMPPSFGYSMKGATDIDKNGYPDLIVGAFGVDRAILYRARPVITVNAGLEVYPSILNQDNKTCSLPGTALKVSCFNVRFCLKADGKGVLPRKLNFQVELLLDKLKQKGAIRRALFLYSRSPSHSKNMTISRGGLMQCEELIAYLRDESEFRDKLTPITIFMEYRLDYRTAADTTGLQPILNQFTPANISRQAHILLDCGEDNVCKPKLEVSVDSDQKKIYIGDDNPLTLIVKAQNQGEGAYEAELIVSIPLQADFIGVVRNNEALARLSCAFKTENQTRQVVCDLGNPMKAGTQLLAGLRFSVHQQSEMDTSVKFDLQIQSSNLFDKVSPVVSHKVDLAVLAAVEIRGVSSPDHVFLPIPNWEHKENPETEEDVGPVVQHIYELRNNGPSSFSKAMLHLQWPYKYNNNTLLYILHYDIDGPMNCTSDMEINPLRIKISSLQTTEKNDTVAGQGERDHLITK
Sequence of Integrin alpha-V/beta-6 (P06756 891-1048 limits assumed): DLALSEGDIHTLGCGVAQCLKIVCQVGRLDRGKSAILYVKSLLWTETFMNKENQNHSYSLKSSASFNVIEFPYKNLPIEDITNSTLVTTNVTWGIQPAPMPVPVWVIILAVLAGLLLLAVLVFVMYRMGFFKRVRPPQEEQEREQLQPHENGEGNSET
Sequence of Integrin alpha-V/beta-6 (P18564 22-788 limits assumed): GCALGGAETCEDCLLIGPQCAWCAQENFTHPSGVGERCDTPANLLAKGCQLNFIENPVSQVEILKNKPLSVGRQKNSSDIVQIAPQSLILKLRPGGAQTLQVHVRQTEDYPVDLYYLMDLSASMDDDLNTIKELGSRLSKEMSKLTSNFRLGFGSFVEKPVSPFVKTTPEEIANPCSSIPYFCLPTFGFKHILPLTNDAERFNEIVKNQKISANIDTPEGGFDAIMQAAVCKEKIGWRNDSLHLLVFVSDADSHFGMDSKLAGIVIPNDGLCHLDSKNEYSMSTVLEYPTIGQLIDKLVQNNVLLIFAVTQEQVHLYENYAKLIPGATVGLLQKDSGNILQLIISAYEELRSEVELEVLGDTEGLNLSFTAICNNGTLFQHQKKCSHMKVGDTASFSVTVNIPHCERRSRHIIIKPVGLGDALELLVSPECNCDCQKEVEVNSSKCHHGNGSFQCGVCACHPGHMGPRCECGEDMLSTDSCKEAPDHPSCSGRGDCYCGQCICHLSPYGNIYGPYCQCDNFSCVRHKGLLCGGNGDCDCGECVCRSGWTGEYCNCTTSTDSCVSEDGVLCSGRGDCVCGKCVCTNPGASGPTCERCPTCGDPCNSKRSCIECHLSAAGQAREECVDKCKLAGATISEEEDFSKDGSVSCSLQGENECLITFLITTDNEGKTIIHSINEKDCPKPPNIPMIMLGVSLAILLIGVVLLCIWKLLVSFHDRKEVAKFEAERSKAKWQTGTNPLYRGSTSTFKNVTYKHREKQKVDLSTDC

[3] = Volume of distribution at steady state in male Wistar Han rat at 1 mg/kg, po or 1 mg/kg, iv measured upto 24 hrs by LC-MS/MS analysis; assay type: ADME, organism-based; conditions: in vivo
[4] = Half life in male Beagle dog at 1 mg/kg, iv measured upto 24 hrs by LC-MS/MS analysis; assay type: ADME, organism-based, Canis lupus familiaris; conditions: in vivo
[5] = Unbound clearance in male Beagle dog at 1 mg/kg, po or 1 mg/kg, iv measured upto 24 hrs by LC-MS/MS analysis; assay type: ADME, organism-based, Canis lupus familiaris; conditions: in vivo
[6] = Oral bioavailability in male Beagle dog at 1 mg/kg measured upto 24 hrs by LC-MS/MS analysis; assay type: ADME, organism-based, Canis lupus familiaris; conditions: in vivo
[7] = Oral bioavailability in male Wistar Han rat at 1 mg/kg measured upto 24 hrs by LC-MS/MS analysis; assay type: ADME, organism-based; conditions: in vivo
[8] = Volume of distribution at steady state in male Beagle dog at 1 mg/kg, po or 1 mg/kg, iv measured upto 24 hrs by LC-MS/MS analysis; assay type: ADME, organism-based, Canis lupus familiaris; conditions: in vivo
[9] = Half life in male Wistar Han rat at 1 mg/kg, iv measured upto 24 hrs by LC-MS/MS analysis; assay type: ADME, organism-based; conditions: in vivo
[10] = Unbound clearance in male Wistar Han rat at 1 mg/kg, po or 1 mg/kg, iv measured upto 24 hrs by LC-MS/MS analysis; assay type: ADME, organism-based; conditions: in vivo
[11] = Oral bioavailability in Gottingen minipig at 1 mg/kg measured upto 24 hrs by LC-MS/MS analysis; assay type: ADME, organism-based, Sus scrofa; conditions: pig, in vivo
[12] = Metabolic stability in human microsome assessed as clearance measured upto 60 mins by LC-MS/MS analysis; assay type: ADME; conditions: microsomes, 1 h
[13] = Volume of distribution at steady state in Gottingen minipig at 1 mg/kg, po or 1 mg/kg, iv measured upto 24 hrs by LC-MS/MS analysis; assay type: ADME, organism-based, Sus scrofa; conditions: pig, in vivo
[14] = Half life in Gottingen minipig at 1 mg/kg, iv measured upto 24 hrs by LC-MS/MS analysis; assay type: ADME, organism-based, Sus scrofa; conditions: pig, in vivo
[15] = Metabolic stability in human Hepatocyte assessed as clearance measured upto 60 mins by LC-MS/MS analysis; assay type: ADME, cell-based; conditions: hepatocytes, 1 h
[16] = Unbound clearance in Gottingen minipig at 1 mg/kg, po or 1 mg/kg, iv measured upto 24 hrs by LC-MS/MS analysis; assay type: ADME, organism-based, Sus scrofa; conditions: pig, in vivo
[17] = Metabolic stability in Wistar rat liver Microsome assessed as clearance measured upto 60 mins by LC-MS/MS analysis; assay type: ADME; conditions: microsomes, 1 h
[18] = Kinetic solubility of compound; assay type: physicochemical; conditions: read-out: Kinetic_solubility
[19] = Permeability across apical to basolateral side in MDCK cells; assay type: ADME, cell-based, Canis lupus familiaris; conditions: dog, read-out: permeability
[20] = Metabolic stability in Wistar rat Hepatocyte assessed as clearance measured upto 60 mins by LC-MS/MS analysis; assay type: ADME, cell-based; conditions: hepatocytes, 1 h
Integrin alpha-V/beta-8 = Integrin alpha-V/beta-8 (Homo sapiens, UniProt P06756+P26012); assay: Binding affinity to Integrin alphaVbeta8 (unknown origin); assay type: protein-complex assay
Sequence of Integrin alpha-V/beta-8 (P06756 31-889 limits assumed): as the sequence (P06756 31-889 limits assumed) above
Sequence of Integrin alpha-V/beta-8 (P06756 891-1048 limits assumed): as the sequence (P06756 891-1048 limits assumed) above
Sequence of Integrin alpha-V/beta-8 (P26012 43-769 limits assumed): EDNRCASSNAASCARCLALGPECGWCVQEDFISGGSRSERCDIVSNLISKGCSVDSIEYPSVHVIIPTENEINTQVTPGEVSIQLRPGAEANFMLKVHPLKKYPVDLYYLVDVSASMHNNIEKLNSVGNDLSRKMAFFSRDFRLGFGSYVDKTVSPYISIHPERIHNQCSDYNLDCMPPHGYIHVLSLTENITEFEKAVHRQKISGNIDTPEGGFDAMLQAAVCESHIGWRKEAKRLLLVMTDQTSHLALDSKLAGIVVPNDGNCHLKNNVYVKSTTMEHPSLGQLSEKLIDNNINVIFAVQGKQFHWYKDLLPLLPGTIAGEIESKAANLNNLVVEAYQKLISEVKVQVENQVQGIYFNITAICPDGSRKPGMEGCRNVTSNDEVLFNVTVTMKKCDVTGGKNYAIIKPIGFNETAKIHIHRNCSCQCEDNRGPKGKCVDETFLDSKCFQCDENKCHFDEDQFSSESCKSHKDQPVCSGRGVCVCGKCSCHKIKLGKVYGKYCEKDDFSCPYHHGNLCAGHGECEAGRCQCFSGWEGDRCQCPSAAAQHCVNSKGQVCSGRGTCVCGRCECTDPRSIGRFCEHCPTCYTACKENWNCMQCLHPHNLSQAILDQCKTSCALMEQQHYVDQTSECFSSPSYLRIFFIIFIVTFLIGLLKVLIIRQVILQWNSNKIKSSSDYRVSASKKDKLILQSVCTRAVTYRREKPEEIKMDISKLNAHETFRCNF

Integrin alpha-V/beta-5 = Integrin alpha-V/beta-5 (Homo sapiens, UniProt P06756+P18084); assay: Binding affinity to Integrin alphaVbeta5 (unknown origin); assay type: protein-complex assay
Sequence of Integrin alpha-V/beta-5 (P06756 31-889 limits assumed): as the sequence (P06756 31-889 limits assumed) above
Sequence of Integrin alpha-V/beta-5 (P06756 891-1048 limits assumed): as the sequence (P06756 891-1048 limits assumed) above
Sequence of Integrin alpha-V/beta-5 (P18084 24-799 limits assumed): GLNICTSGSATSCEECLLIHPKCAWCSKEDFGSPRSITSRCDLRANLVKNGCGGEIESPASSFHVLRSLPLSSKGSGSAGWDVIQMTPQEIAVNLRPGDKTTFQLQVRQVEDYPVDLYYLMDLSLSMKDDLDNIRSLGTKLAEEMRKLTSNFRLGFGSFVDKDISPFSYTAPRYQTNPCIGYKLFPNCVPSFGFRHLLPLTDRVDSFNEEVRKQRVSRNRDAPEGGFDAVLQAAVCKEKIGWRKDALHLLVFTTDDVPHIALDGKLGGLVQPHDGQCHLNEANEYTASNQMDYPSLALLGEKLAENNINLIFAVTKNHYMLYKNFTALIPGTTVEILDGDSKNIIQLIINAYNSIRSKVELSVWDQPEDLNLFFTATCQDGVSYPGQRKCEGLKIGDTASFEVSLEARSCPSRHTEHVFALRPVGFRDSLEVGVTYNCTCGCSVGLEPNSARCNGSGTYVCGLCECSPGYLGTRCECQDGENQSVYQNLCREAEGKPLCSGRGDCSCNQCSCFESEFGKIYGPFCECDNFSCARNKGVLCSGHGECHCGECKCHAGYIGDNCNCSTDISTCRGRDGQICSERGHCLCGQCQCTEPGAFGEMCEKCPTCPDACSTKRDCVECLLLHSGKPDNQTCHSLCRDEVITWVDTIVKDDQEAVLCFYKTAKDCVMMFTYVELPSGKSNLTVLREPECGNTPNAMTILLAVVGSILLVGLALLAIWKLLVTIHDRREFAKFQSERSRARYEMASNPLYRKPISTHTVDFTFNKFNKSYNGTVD

Integrin alpha-V/beta-3 = Integrin alpha-V/beta-3 (Homo sapiens, UniProt P05106+P06756); assay: Binding affinity to Integrin alphaVbeta3 (unknown origin); assay type: protein-complex assay
[21] = dog, mdck-mdr1, 1 h
Description: as §1

[22] = octanol/water, pH 7.4
Description: as §2

[23] = AUC in rat at 2 mg/kg, po; assay type: ADME, organism-based; conditions: in vivo
[24] = Volume of distribution at steady state in male Wistar Han rat at 2 mg/kg, po measured upto 24 hrs by LC-MS/MS analysis; assay type: ADME, organism-based; conditions: in vivo
Mus musculus [25] = assay: Antifibrotic activity against bleomycin-induced mouse model of pulmonary fibrosis at 2 to 10 mg/kg, po; assay type: functional, organism-based; conditions: dose 2-10 mg/kg
[26] = Oral bioavailability in male Wistar Han rat at 2 mg/kg measured upto 24 hrs by LC-MS/MS analysis; assay type: ADME, organism-based; conditions: in vivo
Mus musculus [27] = assay: Antifibrotic activity against bleomycin-induced mouse model of pulmonary fibrosis at 2 to 15 mg/kg, po; assay type: functional, organism-based; conditions: dose 2-15 mg/kg
Integrin alpha-V/beta-1 = Integrin alpha-V/beta-1 (Homo sapiens, UniProt P05556+P06756); assay: Binding affinity to Integrin alphaVbeta1 (unknown origin); assay type: protein-complex assay

T1 sequence (Q12809 whole entry): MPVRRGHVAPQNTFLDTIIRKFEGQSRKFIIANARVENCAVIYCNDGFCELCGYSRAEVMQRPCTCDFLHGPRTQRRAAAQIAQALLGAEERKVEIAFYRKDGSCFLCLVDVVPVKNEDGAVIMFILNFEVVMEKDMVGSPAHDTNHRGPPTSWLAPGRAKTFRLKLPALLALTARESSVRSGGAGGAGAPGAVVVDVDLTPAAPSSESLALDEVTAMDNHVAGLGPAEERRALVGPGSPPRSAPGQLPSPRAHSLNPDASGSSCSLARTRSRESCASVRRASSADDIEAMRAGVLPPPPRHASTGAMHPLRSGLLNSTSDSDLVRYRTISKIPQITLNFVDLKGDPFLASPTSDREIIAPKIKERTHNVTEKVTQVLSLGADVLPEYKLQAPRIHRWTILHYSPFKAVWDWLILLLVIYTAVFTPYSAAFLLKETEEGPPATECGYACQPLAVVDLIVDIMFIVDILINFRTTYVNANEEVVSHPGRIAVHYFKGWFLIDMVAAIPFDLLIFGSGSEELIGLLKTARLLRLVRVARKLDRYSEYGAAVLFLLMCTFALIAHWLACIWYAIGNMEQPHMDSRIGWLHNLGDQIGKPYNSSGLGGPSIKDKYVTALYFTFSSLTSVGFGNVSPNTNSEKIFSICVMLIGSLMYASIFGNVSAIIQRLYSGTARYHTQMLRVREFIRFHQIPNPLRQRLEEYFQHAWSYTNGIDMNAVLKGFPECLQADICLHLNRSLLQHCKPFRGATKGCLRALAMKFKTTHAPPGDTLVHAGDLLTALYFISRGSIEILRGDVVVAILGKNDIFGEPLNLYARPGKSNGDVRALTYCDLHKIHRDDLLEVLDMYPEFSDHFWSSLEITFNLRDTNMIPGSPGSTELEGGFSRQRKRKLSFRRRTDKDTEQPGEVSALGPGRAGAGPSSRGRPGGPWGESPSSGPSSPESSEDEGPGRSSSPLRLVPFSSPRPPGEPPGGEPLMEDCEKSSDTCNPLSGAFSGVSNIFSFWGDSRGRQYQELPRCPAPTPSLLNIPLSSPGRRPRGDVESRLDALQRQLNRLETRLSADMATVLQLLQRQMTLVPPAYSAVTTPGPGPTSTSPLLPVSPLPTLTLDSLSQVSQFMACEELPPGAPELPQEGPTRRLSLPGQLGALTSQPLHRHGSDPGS

Row | Papp A→B at 1 h (in vitro) [×10⁻⁶ cm/s] | logD (physchem) | pIC50 (Integrin alpha-V/beta-6) | Vdss [3] [L/kg] | bioavailability [7] [%] | half-life [9] [h] | CL free [10] [mL/min/kg] | CLH [12] [mL/min/g] | solubility kinetic [18] [µg/mL] | Papp A→B [19] [×10⁻⁶ cm/s] | Compound | other results
1 | 9.3 | 2.66 |  |  |  |  |  |  |  |  | O=C(O)C[C@H](CN1CC[C@](F)(CCc2ccc3c(n2)NCCC3)C1)c1cccc(N2CCOCC2)c1 | pIC50 [1]: < 5.00; pIC50 [2]: < 5.00
2 | 21.6 | 2.68 | 7.30 |  |  |  |  |  |  |  | O=C(O)C[C@H](CN1CCCC(F)(CCc2ccc3c(n2)NCCC3)C1)c1cccc(N2CCOCC2)c1 (stereo in doubt; 4a) | 
3 | 36 | 3.46 | 6.20 |  |  |  |  |  |  |  | O=C(O)C[C@H](CN1CC(CCc2ccc3c(n2)NCCC3)CC(F)(F)C1)c1cccc(N2CCOCC2)c1 (stereo in doubt; 3a) | 
4 |  |  |  | 2.1 | < 2 | 0.8 | 189 |  |  |  | Cc1cc(C)n(-c2cccc([C@H](CC(=O)O)CN3CC[C@@H](CCc4ccc5c(n4)NCCC5)C3)c2)n1.Cl [GSK-3008348] | half-life [4]: 3.6 h; CL free [5]: 124 mL/min/kg; bioavailability [6]: 30%; Vdss [8]: 3.6 L/kg
5 | 21.8 | 2.68 |  | 4.1 | 77 | 1.9 | 206 | < 0.46 | 258 (≈ 520 µM) | 8.7 | O=C(O)C[C@H](CN1CC[C@@](F)(CCc2ccc3c(n2)NCCC3)C1)c1cccc(N2CCOCC2)c1 | bioavailability [11]: 34%; half-life [4]: 6.1 h; CL free [5]: 18 mL/min/kg; Vdss [13]: 2.5 L/kg; bioavailability [6]: 74%; half-life [14]: 3 h; Vdss [8]: 2.5 L/kg; CLH [15]: < 0.62 mL/min/g; CL free [16]: 58 mL/min/kg; CLH [17]: < 0.49 mL/min/g; CLH [20]: < 1.04 mL/min/g; pIC50 [1]: < 5.00; pIC50 [2]: < 5.00
6 | 37 | 4.02 | 5.70 |  |  |  |  |  |  |  | O=C(O)C[C@H](CN1CCC(F)(F)C(CCc2ccc3c(n2)NCCC3)C1)c1cccc(N2CCOCC2)c1 (stereo in doubt; 2a) | 
7 | 33 | 3.3 | 8.00 |  |  |  |  | < 0.53 | 262 (≈ 518 µM) | 17.7 | Cc1cc(C)n(-c2cccc([C@H](CC(=O)O)CN3CC[C@@](F)(CCc4ccc5c(n4)NCCC5)C3)c2)n1 | pIC50 (Integrin alpha-V/beta-8): 7.70; pIC50 (Integrin alpha-V/beta-5): 6.70; CLH [15]: < 0.86 mL/min/g; CLH [17]: 0.91 mL/min/g; pIC50 (Integrin alpha-V/beta-3): 6.50; CLH [20]: 13.75 mL/min/g
8 |  |  | 6.70 |  |  |  |  |  |  |  | O=C(O)C[C@H](CN1CCCC(F)(CCc2ccc3c(n2)NCCC3)C1)c1cccc(N2CCOCC2)c1 (stereo in doubt; 4b) | permeability [21]: 38 ×10⁻⁶ cm/s
9 | 26 | 2.84 |  | 1.9 | 61 | 2.8 | 58 | < 0.4 | 194 (≈ 390 µM) | 7.6 | O=C(O)C[C@H](CN1CC[C@@](F)(CCc2ccc3c(n2)NCCC3)C1)c1cccc(O[C@H]2CCOC2)c1 | bioavailability [11]: 63%; Vdss [13]: 1.4 L/kg; half-life [14]: 3.4 h; CL free [16]: 26 mL/min/kg
10 | 2.7 | 2.27 |  |  |  |  |  |  |  |  | O=C(O)C[C@H](CN1CC[C@@H](CCc2ccc3c(n2)NCCC3)C1)c1cccc(N2CCOCC2)c1 | 
11 |  |  | 6.30 |  |  |  |  |  |  |  | O=C(O)C[C@H](CN1CCC(F)(F)C(CCc2ccc3c(n2)NCCC3)C1)c1cccc(N2CCOCC2)c1 (stereo in doubt; 2b) | permeability [21]: 56 ×10⁻⁶ cm/s; logD [22]: 4.62
12 |  | 2.89 |  |  |  |  |  |  |  | 1.9 | COCCOc1cccc([C@H](CC(=O)O)CN2CC[C@](F)(CCc3ccc4c(n3)NCCC4)C2)c1 | AUC [23]: 101 ng·h/mL
13 | 14.6 | 2.93 |  |  |  |  |  |  | 127 (≈ 262 µM) | 8.7 | COCCOc1cccc([C@H](CC(=O)O)CN2CC[C@@](F)(CCc3ccc4c(n3)NCCC4)C2)c1 | Vdss [24]: 3.6 L/kg; bioavailability [11]: 84%; Vdss [13]: 0.9 L/kg; Activity (Mus musculus [25]): Active; bioavailability [6]: 104%; AUC [23]: 779 ng·h/mL; Vdss [8]: 1.4 L/kg; bioavailability [26]: 93%; Activity (Mus musculus [27]): Active
14 | 20.5 | 2.76 |  | 3.3 | 90 | 3.1 | 88 | < 0.4 | 232 (≈ 466 µM) | 7.8 | O=C(O)C[C@H](CN1CC[C@@](F)(CCc2ccc3c(n2)NCCC3)C1)c1cccc(O[C@@H]2CCOC2)c1 | bioavailability [11]: 66%; Vdss [13]: 1.5 L/kg; half-life [14]: 1.7 h; CLH [15]: < 0.21 mL/min/g; CL free [16]: 34 mL/min/kg; CLH [17]: < 0.46 mL/min/g; pIC50 (Integrin alpha-V/beta-1): 6.80; pIC50 (Integrin alpha-V/beta-3): 7.20; CLH [20]: 1.4 mL/min/g
15 | 17.2 | 3.18 |  | 4.9 | 50 | 3.5 | 182 | < 0.4 | 209 (≈ 408 µM) | 12.1 | O=C(O)C[C@H](CN1CC[C@@](F)(CCc2ccc3c(n2)NCCC3)C1)c1cccc(OC2CCOCC2)c1 | pIC50 (Integrin alpha-V/beta-8): 7.90; pIC50 (Integrin alpha-V/beta-5): 7.50; CLH [15]: < 0.21 mL/min/g; CLH [17]: < 0.46 mL/min/g; CLH [20]: 1.6 mL/min/g
16 |  |  | 7.10 |  |  |  |  |  |  |  | O=C(O)C[C@H](CN1CC(CCc2ccc3c(n2)NCCC3)CC(F)(F)C1)c1cccc(N2CCOCC2)c1 (stereo in doubt; 3b) | permeability [21]: 56 ×10⁻⁶ cm/s; logD [22]: 4.33
